Data: US9763445B2, “Safened herbicidal compositions comprising a pyridine carboxylic acid herbicide” (Dow AgroSciences, LLC, priority 2014, dated 2017)

Columns and labels:
[1] = test system: bird's-eye speedwell (VERPE); assay: Postemergence greenhouse trial, % visual injury on bird's-eye speedwell; format: in vivo, Veronica persica
Outline: (§1)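 Herbicide rates g ae/ha, safener (cloquintocet-mexyl) rates g ai/ha; spray carrier 1.5% v/v crop oil concentrate, 187 L/ha, 2nd–3rd leaf stage. Rating: visual % injury at 20-22 d.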

spring barley (HORVS) = assay: Postemergence greenhouse trial, % visual injury on spring barley; format: in vivo, Hordeum vulgare
Outline: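 Greenhouse crops at second to third true leaf stage sprayed postemergence at 187 L/ha with herbicide (g ae/ha) plus safener (g ai/ha) in acetone/DMSO diluted into 1.5% v/v Agri-dex. Injury scored visually versus solvent-blank controls after 20-22 d, 0 (none) to 100% (complete kill); expected mixture effects by Colby's equation.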

wild mustard (SINAR) = assay: Postemergence greenhouse trial, % visual injury on wild mustard; format: in vivo, Sinapis arvensis; conditions: for % visual injury, Ob: SINAR
Outline: as §1

CCCCCC(C)OC(=O)COc1ccc(Cl)c2cccnc12 (centres unmarked) [CQC-m, cloquintocet-mexyl, reference compound]
0%: % visual injury, Ob ([1]; VERPE, compound 0, CQC-m 4.375 g/ha) | % visual injury, Ob ([1]; VERPE, compound 0, CQC-m 8.75 g/ha) | % visual injury, Ob ([1]; VERPE, compound 0, CQC-m 17.5 g/ha) | % visual injury, Ob ([1]; VERPE, compound 0, CQC-m 35 g/ha) | % visual injury, Ob ([1]; VERPE, compound 0, CQC-m 70 g/ha) | % visual injury, Ob ([1]; VERPE, compound 0 g/ha, CQC-m 4.375 g/ha) | % visual injury, Ob ([1]; VERPE, compound 0 g/ha, CQC-m 8.75 g/ha) | % visual injury, Ob ([1]; VERPE, compound 0 g/ha, CQC-m 17.5 g/ha) | % visual injury, Ob ([1]; VERPE, compound 0 g/ha, CQC-m 35 g/ha) | % visual injury, Ob ([1]; VERPE, compound 0 g/ha, CQC-m 70 g/ha) | % visual injury, observed (Ob) ([1]; VERPE, compound 8 0 + CQC-m 4.375 g/ha) | % visual injury, observed (Ob) ([1]; VERPE, compound 8 0 + CQC-m 8.75 g/ha) | % visual injury, observed (Ob) ([1]; VERPE, compound 8 0 + CQC-m 17.5 g/ha) | % visual injury, observed (Ob) ([1]; VERPE, compound 8 0 + CQC-m 35 g/ha) | % visual injury, observed (Ob) ([1]; VERPE, compound 8 0 + CQC-m 70 g/ha) | % visual injury, Ob ([1]; alone, 4.375 g/ha) | % visual injury, Ob ([1]; alone, 8.75 g/ha) | % visual injury, Ob ([1]; alone, 17.5 g/ha) | % visual injury, Ob ([1]; alone, 35 g/ha) | % visual injury, Ob ([1]; alone, 70 g/ha) | % visual injury, Ob (spring barley (HORVS); HORVS, 4.375 g/ha, applied alone) | % visual injury, Ob (spring barley (HORVS); HORVS, 8.75 g/ha, applied alone) | % visual injury, Ob (spring barley (HORVS); HORVS, 17.5 g/ha, applied alone) | % visual injury, Ob (spring barley (HORVS); HORVS, 35 g/ha, applied alone) | % visual injury, Ob (spring barley (HORVS); HORVS, 70 g/ha, applied alone) | % visual injury, Ob (spring barley (HORVS); HORVS, compound 0, CQC-m 4.375 g/ha) | % visual injury, Ob (spring barley (HORVS); HORVS, compound 0, CQC-m 8.75 g/ha) | % visual injury, Ob (spring barley (HORVS); HORVS, compound 0, CQC-m 17.5 g/ha) | % visual injury, Ob (spring barley (HORVS); HORVS, compound 0, CQC-m 35 g/ha) | % visual injury, Ob (spring barley (HORVS); HORVS, compound 0, CQC-m 70 g/ha) | % visual injury, Ob (spring barley (HORVS); HORVS, compound 0 g/ha, CQC-m 4.375 g/ha) | % visual injury, Ob (spring barley (HORVS); HORVS, compound 0 g/ha, CQC-m 8.75 g/ha) | % visual injury, Ob (spring barley (HORVS); HORVS, compound 0 g/ha, CQC-m 17.5 g/ha) | % visual injury, Ob (spring barley (HORVS); HORVS, compound 0 g/ha, CQC-m 35 g/ha) | % visual injury, Ob (spring barley (HORVS); HORVS, compound 0 g/ha, CQC-m 70 g/ha) | % visual injury, observed (Ob) (spring barley (HORVS); HORVS, compound 8 0 + CQC-m 4.375 g/ha) | % visual injury, observed (Ob) (spring barley (HORVS); HORVS, compound 8 0 + CQC-m 8.75 g/ha) | % visual injury, observed (Ob) (spring barley (HORVS); HORVS, compound 8 0 + CQC-m 17.5 g/ha) | % visual injury, observed (Ob) (spring barley (HORVS); HORVS, compound 8 0 + CQC-m 35 g/ha) | % visual injury, observed (Ob) (spring barley (HORVS); HORVS, compound 8 0 + CQC-m 70 g/ha) | % visual injury, Ob (spring barley (HORVS); alone, 4.375 g/ha) | % visual injury, Ob (spring barley (HORVS); alone, 8.75 g/ha) | % visual injury, Ob (spring barley (HORVS); alone, 17.5 g/ha) | % visual injury, Ob (spring barley (HORVS); alone, 20 g/ha) | % visual injury, Ob (spring barley (HORVS); alone, 35 g/ha) | % visual injury, Ob (spring barley (HORVS); alone, 40 g/ha) | % visual injury, Ob (spring barley (HORVS); alone, 70 g/ha) | % visual injury, Ob (spring barley (HORVS); alone, 80 g/ha) | pest or weed control at 4.375 g/ha (wild mustard (SINAR); Brassica, post-emergence, alone, 4.375 g/ha, read-out: % visual injury, Ob) | pest or weed control at 8.75 g/ha (wild mustard (SINAR); Brassica, post-emergence, alone, 8.75 g/ha, read-out: % visual injury, Ob) | pest or weed control at 17.5 g/ha (wild mustard (SINAR); Brassica, post-emergence, alone, 17.5 g/ha, read-out: % visual injury, Ob) | pest or weed control at 35 g/ha (wild mustard (SINAR); Brassica, post-emergence, alone, 35 g/ha, read-out: % visual injury, Ob) | pest or weed control at 70 g/ha (wild mustard (SINAR); Brassica, post-emergence, alone, 70 g/ha, read-out: % visual injury, Ob) | % visual injury, Ob (wild mustard (SINAR); 4.375 g/ha, applied alone) | % visual injury, Ob (wild mustard (SINAR); 8.75 g/ha, applied alone) | % visual injury, Ob (wild mustard (SINAR); 17.5 g/ha, applied alone) | % visual injury, Ob (wild mustard (SINAR); 35 g/ha, applied alone) | % visual injury, Ob (wild mustard (SINAR); 70 g/ha, applied alone) | % visual injury, Ob (wild mustard (SINAR); compound 0, CQC-m 4.375 g/ha) | % visual injury, Ob (wild mustard (SINAR); compound 0, CQC-m 8.75 g/ha) | % visual injury, Ob (wild mustard (SINAR); compound 0, CQC-m 17.5 g/ha) | % visual injury, Ob (wild mustard (SINAR); compound 0, CQC-m 35 g/ha) | % visual injury, Ob (wild mustard (SINAR); compound 0, CQC-m 70 g/ha) | % visual injury, Ob (wild mustard (SINAR); compound 0 g/ha, CQC-m 4.375 g/ha) | % visual injury, Ob (wild mustard (SINAR); compound 0 g/ha, CQC-m 8.75 g/ha) | % visual injury, Ob (wild mustard (SINAR); compound 0 g/ha, CQC-m 17.5 g/ha) | % visual injury, Ob (wild mustard (SINAR); compound 0 g/ha, CQC-m 35 g/ha) | % visual injury, Ob (wild mustard (SINAR); compound 0 g/ha, CQC-m 70 g/ha)
